Where two headings read alike, the source gives them in different places.
Molecular target: T1, CFTR (Homo sapiens, UniProt P13569, DEL508-508)
T1 construct: endogenous in cells; host or cells: primary human bronchial epithelial cells from CF subjects (F508del/MF-HBE), differentiated at air-liquid interface
Experiment: HBE assay: Ussing chamber assay of CFTR-mediated short-circuit currents
Assay type: cell-based
Conditions: for EC50: read-out: HBE EC50
How it was run: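 CFTR-mediated Isc (μA/cm²) equals the peak response to apical 20 μM forskolin minus the residual after a 20 μM each BPO/GlyH-101/CFTR inhibitor 172 cocktail, recorded in Ussing chambers at Vhold 0 mV, 37 °C, pH 7.4, with 30 μM apical amiloride. Cells were F508del/MF HBE cultures preincubated 18-24 h with corrector (concentration range or 10 μM) plus 1 μM ivacaftor in 20% human serum.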

[1] = Table 10, read-out: HBE activity at 10 (μM) (%)
[2] = Table 10, read-out: HBE Max activity (%)
[3] = Table 13, read-out: HBE Activity at 10 μM (%)
[4] = Table 12, read-out: HBE Activity at 10 μM (%)
[5] = Table 12, read-out: HBE Max Activity (%)
[6] = Table 13, read-out: HBE Max Activity (%)

T1 sequence (P13569 with tags, fused parts or gaps DEL508-508): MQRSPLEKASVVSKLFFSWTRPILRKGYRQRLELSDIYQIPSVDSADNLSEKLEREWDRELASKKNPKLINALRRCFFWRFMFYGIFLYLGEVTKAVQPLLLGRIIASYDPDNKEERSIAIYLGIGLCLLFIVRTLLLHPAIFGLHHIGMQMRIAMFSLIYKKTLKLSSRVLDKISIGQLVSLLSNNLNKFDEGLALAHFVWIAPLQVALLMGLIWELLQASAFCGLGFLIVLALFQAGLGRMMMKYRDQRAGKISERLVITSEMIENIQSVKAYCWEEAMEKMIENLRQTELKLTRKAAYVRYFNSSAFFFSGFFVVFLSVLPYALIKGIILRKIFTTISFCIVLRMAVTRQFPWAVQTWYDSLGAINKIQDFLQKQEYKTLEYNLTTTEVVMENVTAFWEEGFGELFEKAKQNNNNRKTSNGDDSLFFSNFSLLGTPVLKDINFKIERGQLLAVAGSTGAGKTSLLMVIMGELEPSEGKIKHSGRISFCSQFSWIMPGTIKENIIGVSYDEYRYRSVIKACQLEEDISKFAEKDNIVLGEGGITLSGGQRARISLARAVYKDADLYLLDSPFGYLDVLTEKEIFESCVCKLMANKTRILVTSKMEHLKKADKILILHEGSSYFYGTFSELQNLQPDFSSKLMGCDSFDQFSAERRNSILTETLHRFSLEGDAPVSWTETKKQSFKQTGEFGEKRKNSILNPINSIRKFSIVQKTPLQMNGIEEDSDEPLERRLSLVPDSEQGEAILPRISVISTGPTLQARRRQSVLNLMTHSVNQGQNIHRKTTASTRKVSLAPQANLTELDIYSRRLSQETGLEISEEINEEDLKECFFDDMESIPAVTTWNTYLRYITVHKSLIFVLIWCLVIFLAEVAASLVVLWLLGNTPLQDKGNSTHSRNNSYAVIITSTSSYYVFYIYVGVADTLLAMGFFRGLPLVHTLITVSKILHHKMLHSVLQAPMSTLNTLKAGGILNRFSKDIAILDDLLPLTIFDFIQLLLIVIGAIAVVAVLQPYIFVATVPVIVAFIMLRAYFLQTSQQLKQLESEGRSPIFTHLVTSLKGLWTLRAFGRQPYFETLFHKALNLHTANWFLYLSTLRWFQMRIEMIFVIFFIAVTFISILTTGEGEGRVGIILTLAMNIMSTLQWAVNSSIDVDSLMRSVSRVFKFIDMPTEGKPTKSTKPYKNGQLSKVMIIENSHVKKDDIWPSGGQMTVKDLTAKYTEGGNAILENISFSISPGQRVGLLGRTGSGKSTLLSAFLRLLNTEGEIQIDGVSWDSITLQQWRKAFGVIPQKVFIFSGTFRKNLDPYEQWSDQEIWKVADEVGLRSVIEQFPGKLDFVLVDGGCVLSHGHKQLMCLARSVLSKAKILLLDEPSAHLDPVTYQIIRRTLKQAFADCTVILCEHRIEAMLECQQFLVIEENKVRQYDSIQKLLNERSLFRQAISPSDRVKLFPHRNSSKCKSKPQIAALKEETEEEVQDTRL

SMILES | EC50 (Table 10) [nM] | Emax [2] [%] | further results
CNc1cccc(CN2C(=O)c3cccc(c3)S(=O)(=O)Nc3nc(cc(-c4c(C)cccc4C)n3)OC[C@H]2CC(C)(C)C)n1 [Compound 490] | < 1000 | > 60 | activation at 10 µM [1]: > 60%
Cc1cccc(C)c1-c1cc2nc(n1)NS(=O)(=O)c1cccc(c1)C(=O)N(Cc1cccc(N(C)C)n1)[C@H](CC(C)(C)C)CO2 [Compound 491] | < 1000 | > 60 | activation at 10 µM [1]: > 60%
Cc1cccc(C)c1-c1cc2nc(n1)NS(=O)(=O)c1cccc(c1)C(=O)N(CC1CCN(c3ccncc3)CC1)[C@H](CC(C)(C)C)CO2 [Compound 492] |  |  | activation at 10 µM [1]: > 60%
Cc1cccc(C)c1-c1cc2nc(n1)NS(=O)(=O)c1cccc(c1)C(=O)N(CC1CCN(c3ccccn3)CC1)[C@H](CC(C)(C)C)CO2 [Compound 493] | < 1000 | > 60 | 
Cc1cc(N(C)C)cnc1CN1C(=O)c2cccc(c2)S(=O)(=O)Nc2nc(cc(-c3c(C)cccc3C)n2)OC[C@H]1CC(C)(C)C [Compound 494] | < 1000 | > 60 | 
Cc1cccc(C)c1-c1cc2nc(n1)NS(=O)(=O)c1cccc(c1)C(=O)N(Cc1ccc(C3CCCCC3)cc1)[C@H](CC(C)(C)C)CO2 [Compound 495] | 1000 to 3000 | > 60 | 
Cc1cccc(C)c1-c1cc2nc(n1)NS(=O)(=O)c1cccc(c1)C(=O)N(Cc1ccc(C(C)(C)C)cn1)[C@H](CC(C)(C)C)CO2 [Compound 496] | < 1000 | > 60 | 
Cc1cccc(C)c1-c1cc2nc(n1)NS(=O)(=O)c1cccc(c1)C(=O)N(Cc1ccc(N(C)CC(C)(C)C)cn1)[C@H](CC(C)(C)C)CO2 [Compound 497] | 1000 to 3000 | > 60 | 
Cc1cccc(C)c1-c1cc2nc(n1)NS(=O)(=O)c1cccc(c1)C(=O)N(Cc1ccc(N3CCOCC3)cc1)[C@H](CC(C)(C)C)CO2 [Compound 498] | < 1000 | > 60 | 
Cc1cccc(C)c1-c1cc2nc(n1)NS(=O)(=O)c1cccc(c1)C(=O)N(Cc1ccc(-c3ccccc3)cn1)[C@H](CC(C)(C)C)CO2 [Compound 499] | < 1000 | > 60 | 
Cc1ccc(CN2C(=O)c3cccc(c3)S(=O)(=O)Nc3nc(cc(-c4c(C)cccc4C)n3)OC[C@H]2CC(C)(C)C)nc1 [Compound 500] | < 1000 | > 60 | 
COc1ccc(CN2C(=O)c3cccc(c3)S(=O)(=O)Nc3nc(cc(-c4c(C)cccc4C)n3)OC[C@H]2CC(C)(C)C)nc1 [Compound 501] | < 1000 | > 60 | 
Cc1cccc(C)c1-c1cc2nc(n1)NS(=O)(=O)c1cccc(c1)C(=O)N(Cc1ccc(N3CCCCC3)cn1)[C@H](CC(C)(C)C)CO2 [Compound 502] | < 1000 | > 60 | 
Cc1cccc(C)c1-c1cc2nc(n1)NS(=O)(=O)c1cccc(c1)C(=O)N(Cc1ccc(N(C)C)cn1)[C@H](CC(C)(C)C)CO2 [Compound 503] | < 1000 | > 60 | 
COCCN(C)c1ccc(CN2C(=O)c3cccc(c3)S(=O)(=O)Nc3nc(cc(-c4c(C)cccc4C)n3)OC[C@H]2CC(C)(C)C)nc1 [Compound 504] | 1000 to 3000 | > 60 | 
Cc1cccc(C)c1-c1cc2nc(n1)NS(=O)(=O)c1cccc(c1)C(=O)N(Cc1cnc(N3CCOCC3)cn1)[C@H](CC(C)(C)C)CO2 [Compound 505] | < 1000 | > 60 | 
Cc1cccc(C)c1-c1cc2nc(n1)NS(=O)(=O)c1cccc(c1)C(=O)N(Cc1c(F)cc(C3CCOCC3)cc1F)[C@H](CC(C)(C)C)CO2 [Compound 517] |  |  | activation at 10 µM [3]: > 600%
Cc1cccc(C)c1-c1cc2nc(n1)NS(=O)(=O)c1cccc(c1)C(=O)N(Cc1ccc(C3CCOCC3)cc1F)[C@H](CC(C)(C)C)CO2 [Compound 518] |  |  | activation at 10 µM [3]: > 600%

SMILES | EC50 (Table 10) [nM] | Emax [2] [%] | further results
Cc1cc(C2CCOCC2)ccc1CN1C(=O)c2cccc(c2)S(=O)(=O)Nc2nc(cc(-c3c(C)cccc3C)n2)OC[C@H]1CC(C)(C)C [Compound 519] |  |  | activation at 10 µM [3]: > 600%
Cc1cccc(C)c1-c1cc2nc(n1)NS(=O)(=O)c1cccc(c1)C(=O)N(Cc1ncc(C3CCOCC3)cc1F)[C@H](CC(C)(C)C)CO2 [Compound 521] |  |  | activation at 10 µM [4]: > 600%
Cc1cccc(C)c1-c1cc2nc(n1)NS(=O)(=O)c1cccc(c1)C(=O)N(Cc1ncc(N3CCC(C)(C)CC3)cc1F)[C@H](CC(C)(C)C)CO2 [Compound 522] |  |  | EC50 (Table 12): < 1000 nM; Emax [5]: > 60%
Cc1cccc(C)c1-c1cc2cc(n1)NS(=O)(=O)c1cccc(c1)C(=O)N(Cc1ncc(CC(C)C)cn1)[C@H](CC(C)(C)C)CO2 [Compound 523] |  |  | activation at 10 µM [4]: > 600%
Cc1cccc(C)c1-c1cc2cc(n1)NS(=O)(=O)c1cccc(c1)C(=O)N(Cc1ncc(N3CCC(C)(C)C3)cn1)[C@H](CC(C)(C)C)CO2 [Compound 524] |  |  | EC50 (Table 12): < 1000 nM; Emax [5]: > 60%
Cc1cccc(C)c1-c1cc2cc(n1)NS(=O)(=O)c1cccc(c1)C(=O)N(Cc1cccc(N3CCC[C@H]3C)n1)[C@H](CC(C)(C)C)CO2 [Compound 526] |  |  | EC50 (Table 12): < 1000 nM; Emax [5]: > 60%
Cc1cccc(C)c1-c1cc2cc(n1)NS(=O)(=O)c1cccc(c1)C(=O)N(Cc1cncc(N(C)CC(C)(C)C)n1)[C@H](CC(C)(C)C)CO2 [Compound 527] |  |  | EC50 (Table 12): < 1000 nM; Emax [5]: > 60%
Cc1cccc(C)c1-c1cc2nc(n1)NS(=O)(=O)c1cccc(c1)C(=O)N(Cc1ccc(C(C)(C)C)nc1C)[C@H](CC(C)(C)C)CO2 [Compound 528] |  | > 60 | 
Cc1cccc(C)c1-c1cc2nc(n1)NS(=O)(=O)c1cccc(c1)C(=O)N(Cc1ccc(N(C)C)nc1)[C@H](CC(C)(C)C)CO2 [Compound 529] | < 1000 | > 60 | 
Cc1cccc(C)c1-c1cc2nc(n1)NS(=O)(=O)c1cccc(c1)C(=O)N(Cc1cccc(N(CCO)C(C)C)n1)[C@H](CC(C)(C)C)CO2 [Compound 530] |  |  | EC50 (Table 13): < 1000 nM; Emax [6]: > 60%
Cc1cccc(C)c1-c1cc2nc(n1)NS(=O)(=O)c1cccc(c1)C(=O)N(Cc1cccc(N3CCC34CCC(C)(C)C4)n1)[C@H](CC(C)(C)C)CO2 (some centres unmarked) [Compound 531] |  |  | EC50 (Table 13): < 1000 nM; Emax [6]: > 60%
Cc1cccc(C)c1-c1cc2nc(n1)NS(=O)(=O)c1cccc(c1)C(=O)N(Cc1cccc(N3CCC34CCOC4)n1)[C@H](CC(C)(C)C)CO2 (some centres unmarked) [Compound 532] |  |  | EC50 (Table 13): < 1000 nM; Emax [6]: > 60%
Cc1cccc(C)c1-c1cc2nc(n1)NS(=O)(=O)c1cccc(c1)C(=O)N(Cc1cccc(N3CCC[C@@H]3C#N)n1)[C@H](CC(C)(C)C)CO2 [Compound 533] |  |  | activation at 10 µM [3]: > 600%
Cc1cccc(C)c1-c1cc2nc(n1)NS(=O)(=O)c1cccc(c1)C(=O)N(Cc1cccc(N3CCC[C@H]3C#N)n1)[C@H](CC(C)(C)C)CO2 [Compound 534] |  |  | activation at 10 µM [3]: > 600%
Cc1cccc(C)c1-c1cc2nc(n1)NS(=O)(=O)c1cccc(c1)C(=O)N(Cc1ncc(N3[C@H](C)CC[C@@H]3C)cn1)[C@H](CC(C)(C)C)CO2 [Compound 535] |  |  | activation at 10 µM [3]: > 600%; EC50 (Table 13): < 1000 nM; Emax [6]: > 60%
Cc1cccc(C)c1-c1cc2nc(n1)NS(=O)(=O)c1cccc(c1)C(=O)N(Cc1cccc(N3CCC34CCOCC4)n1)[C@H](CC(C)(C)C)CO2 [Compound 536] |  |  | activation at 10 µM [3]: > 600%; EC50 (Table 13): < 1000 nM; Emax [6]: > 60%
Cc1cccc(C)c1-c1cc2nc(n1)NS(=O)(=O)c1cccc(c1)C(=O)N(Cc1ncc(N3CCCC3(C)C)cn1)[C@H](CC(C)(C)C)CO2 [Compound 537] |  |  | EC50 (Table 13): < 1000 nM; Emax [6]: > 60%
